The subject of one series is Albino Swiss mice. The series can be described thus: spontaneous locomotor activity. It is filed as in vivo. The following applies: ip. The procedure: Adult male Albino Swiss mice (CD-1, 8 weeks old, 25–30 g: Jagiellonian University Medical College, Krakow, Poland) were used in the study. Animals were housed in groups of 8 in a transparent plastic cage (382 × 220 × 150 mm) at room temperature (22 ± 2 °C), on a 12 h light/dark cycle with ad libitum access to food and water. Mice were handled for one week before starting the experimental procedures. The separate groups of animals were used in the forced swim test and in the locomotor studies. All studies were approved by the Institutional Animal Care and Ethics Committee of the Jagiellonian University (approval no.: 80/2015).
Tested compounds were dissolved with 1% Tween 80. […] The control animals were given ip injections of the 2% DMSO in 1% Tween 80 (vehicle). The volume of vehicle or drug solutions was 10 mL/kg.
Locomotor activity was recorded with an Opto M3 multichannel activity monitor, photoresistor actometers connected to a counter for the recording of light-beam interruptions (MultiDevice Software v1.3, Columbus Instruments, Columbus, OH, USA). The mice, after being placed into the cages individually, had their activity evaluated between the 2nd and the 6th minute. The chosen time period corresponded with the time interval considered in the FST. Spontaneous locomotor activity was evaluated as the distance travelled plus the movements of climbing by animals.

The next series addresses T1, 5-HT7R (Homo sapiens, UniProt P34969).
T1 construct: expressed in transfected cells; host or cells: HEK-293 (prepared with Lipofectamine 2000, G418 selection)
Kind of series: intrinsic activity at 5-HT7R, LANCE cAMP assay in HEK-293 cells, 5-CT stimulated. Format: cell-based. To be noted: read-out: 5-HT7 Kb. The procedure: Cells (prepared with the use of Lipofectamine 2000) were maintained at 37 °C in a humidified atmosphere with 5% CO2 and grown in Dulbeco’s Modifier Eagle Medium containing 10% dialyzed fetal bovine serum and […] G418 sulphate. For functional experiments, cells were subcultured in 25 cm diameter dishes, grown to 90% confluence, washed twice with pre-warmed to 37 °C phosphate buffered saline (PBS) and were centrifuged for 5 min (160× g). The supernatant was aspirated, then the cell pellet was resuspended in stimulation buffer (1 × HBSS, 5 mM HEPES, 0.5 mM IBMX, 0.1% BSA). The cAMP level was measured using the LANCE cAMP detection kit (PerkinElmer), according to the manufacturer’s directions. […] Cells (5 µL) were incubated with compounds (5 µL) for 30 min at room temperature in 384-well white opaque microtiter plate. After incubation, the reaction was stopped, and cells were lysed by the addition of 10 µL working solution (5 µL Eu-cAMP and 5 µL ULight-anti-cAMP). The assay plate was incubated for 1 h at room temperature. Time-resolved fluorescence resonance energy transfer (TR-FRET) was detected by an Infinite M1000 Pro (Tecan) using instrument settings from LANCE cAMP detection kit manual. Kb values were calculated from the Cheng–Prusoff equation specific for the analysis of functional inhibition curves: Kb = IC50/(1+A/EC50) where A is the agonist concentration, IC50 is the concentration of the antagonist producing a 50% reduction in the response to the agonist, and EC50 is the agonist concentration which causes half of the maximal response.
(In general: TR-FRET usually uses a lanthanide donor and a delayed reading to cut background.)

[1] abbreviates: doses effective in the FST (6: 4, 8 mg/kg; mirtazapine: 16 mg/kg).

Experimental findings from publication PMC8270334, “Design, Sustainable Synthesis and Biological Evaluation of a Novel Dual α2A/5-HT7 Receptor Antagonist with Antidepressant-Like Properties” (Molecules, 2021) are described below.

T1 sequence (P34969 1-432): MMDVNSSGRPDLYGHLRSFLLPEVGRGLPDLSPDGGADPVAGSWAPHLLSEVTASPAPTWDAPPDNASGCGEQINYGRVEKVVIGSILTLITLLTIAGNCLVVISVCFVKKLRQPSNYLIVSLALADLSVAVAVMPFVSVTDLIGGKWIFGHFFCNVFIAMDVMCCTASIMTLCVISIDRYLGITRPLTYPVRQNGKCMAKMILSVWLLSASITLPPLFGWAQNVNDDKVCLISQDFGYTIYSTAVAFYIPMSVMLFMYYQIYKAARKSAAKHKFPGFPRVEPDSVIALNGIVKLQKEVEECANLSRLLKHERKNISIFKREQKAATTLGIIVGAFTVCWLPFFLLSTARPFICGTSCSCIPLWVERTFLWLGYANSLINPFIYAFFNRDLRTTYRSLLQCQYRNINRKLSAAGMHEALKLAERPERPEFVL

As for `CC1(C)Cc2cccc(OCCN3CCC(NS(=O)(=O)c4ccc(F)cc4)CC3)c2O1` [Compound 6, 4-Fluoro-N-{1-[2-(2,2-dimethyl-2,3-dihydrobenzofuran-7-yloxy)ethyl]piperidin-4-yl} benzenesulfonamide], the “influence on spontaneous locomotor activity (sedation)” value (“influence” for short) in the series on Albino Swiss mice (setting [1]) is listed as “induced sedation”. Also, at 5-HT7R, the Kb is 186 ± 37 nM.
Consider `CC1(C)Cc2cccc(OCCN3CCC(NS(=O)(=O)c4cc(Cl)ccc4F)CC3)c2O1` [Compound 8, 5-Chloro-2-fluoro-N-{1-[2-(2,2-dimethyl-2,3-dihydrobenzofuran-7-yloxy)ethyl]piperidin-4-yl}benzenesulfonamide], for which, in the series on Albino Swiss mice (setting [1]), the “influence” value is given as “no influence on the spontaneous locomotor activity”. Moreover, at 5-HT7R, the Kb was 141 ± 43 nM.
For the molecule `CC1(C)Cc2cccc(OCCN3CCC(NS(=O)(=O)c4cncc5ccccc45)CC3)c2O1` [Compound 13, 4-Isoquinoline-N-{1-[2-(2,2-dimethyl-2,3-dihydrobenzofuran-7-yloxy)ethyl]piperidin-4-yl}sulfonamide], the results for the “influence” value in the series with Albino Swiss mice (1 mg/kg) and in the series on Albino Swiss mice (higher doses (above 1 mg/kg)) were “without affecting locomotor activity” and “caused sedation”, respectively. Also, the Kb on 5-HT7R was found to be 155 ± 30 nM.
